# According to paper PMC11520585 (BMC Neuroscience, 2024):
# What was measured:
# [1] = test system: organotypic hippocampal slice cultures; experiment: organotypic hippocampal slice culture neuroprotection assay; assay type: cell-based, rat; settings: ZA-II-05 100 µM, NMDA 10 µM insult, P < 0.05
# C. elegans [2] = settings: in vivo
# C. elegans [3] = assay type: in vivo; settings: ZA-II-05 1 mg/ml treated groups, 24 h
# C. elegans [4] = assay type: in vivo; settings: ZA-II-05 1 mg/ml treated groups, 24 h; remark: listed apart in the source
# C. elegans [5] = settings: in vivo; remark: listed apart in the source
# Opioid receptors (KOR) = settings: read-out: Ki, Opioid receptors (KOR); competitive radioligand binding; cited from earlier work
# µ-opioid receptors (MOR) = settings: read-out: Ki, µ-opioid receptors (MOR); competitive radioligand binding; cited from earlier work
# Sigma2 receptor = settings: read-out: Ki, Sigma2 receptor; competitive radioligand binding; cited from earlier work
# [6] = biological target: GluN1/GluN2A subtype receptors; settings: read-out: mean IC50, GluN1/GluN2A; cited from earlier work
# [7] = biological target: GluN1/GluN2B subtype receptors; settings: read-out: mean IC50, GluN1/GluN2B; cited from earlier work
# [8] = test system: maximal electroshock seizures; settings: 100 and 300 mg/kg (i.p.); cited from earlier work
# [9] = test system: vanadium-induced neurotoxicity; settings: vanadium-exposed mice; cited from earlier work
smiles,measurement,setting,value
"Fc1ccc(C2(NCCCOC3CCCCO3)CC3CCC2C3)cc1 (stereo not drawn) [ZA-II-05, 2-[4-Fluorophenyl]-N-(3-[tetrahydro-2H-pyran-2-yloxy]propyl) bicyclo [2.2.1] heptan-2-amine]",neuroprotection (propidium iodide fluorescence intensity vs NMDA group),[1],significant neuroprotective effect
same,"growth pattern (body length, body wall)",C. elegans [2],reversed this effect
same,nuclei in ventral nerve cord (DAPI),C. elegans [3],preserved the nucleus
same,mitochondrial density (fluorescence intensity),C. elegans [4],dense presence of mitochondria
same,"mitochondrial superoxide (MitoSOX fluorescence), effect on vanadium-induced ROS",C. elegans [5],alleviated
same,Ki,Opioid receptors (KOR),361 nM
same,Ki,µ-opioid receptors (MOR),3040 nM
same,Ki,Sigma2 receptor,5.5 nM
same,IC50,[6],518 nM
same,IC50,[7],430 nM
same,activity in maximal electroshock seizure (MES) assessment,[8],activity
same,protection against neuronal damage,[9],considerable protection against neuronal damage
